# Data reported in ChEMBL document CHEMBL1155321, “Dopamine D3 receptor antagonists: the quest for a potentially selective PET ligand. Part 3: Radiosynthesis and in vivo studies” (Bioorg Med Chem Lett, 2009).
# How the values were obtained:
# [1] = Intrinsic clearance in human liver microsomes; format: ADME, Microsome
# [2] = Intrinsic clearance in rat liver microsomes; format: ADME, Microsome
structure (smiles),measurement,setting,value
O=C1N(CCN2Cc3ccccc3C2)CCN1c1cccc(Cl)c1,CLint scaled,[1],8.9 mL/min/kg
same,CLint scaled,[2],36.9 mL/min/kg
